Experimental data taken from ChEMBL document CHEMBL1131783, “Prodrugs of CL316243: a selective beta3-adrenergic receptor agonist for treating obesity and diabetes” (Bioorg Med Chem Lett, 1999).

Tests used:
Mus musculus = organism: Mus musculus; assay: The compound was evaluated for the % glucose lowering along with drug intake over the test period of 5-7 days in mice
[1] = molecular target: Beta-3 adrenergic receptor (Rattus norvegicus) (UniProt P26255); assay: Beta-3-adrenergic activity measured by percent response against free fatty acid (FFA) in rat plasma at a dosage of 0.1 mg/kg; type: functional, organism-based; design: dose 0.1 mg/kg
Chain of Beta-3 adrenergic receptor (Rattus norvegicus) (P26255 whole entry): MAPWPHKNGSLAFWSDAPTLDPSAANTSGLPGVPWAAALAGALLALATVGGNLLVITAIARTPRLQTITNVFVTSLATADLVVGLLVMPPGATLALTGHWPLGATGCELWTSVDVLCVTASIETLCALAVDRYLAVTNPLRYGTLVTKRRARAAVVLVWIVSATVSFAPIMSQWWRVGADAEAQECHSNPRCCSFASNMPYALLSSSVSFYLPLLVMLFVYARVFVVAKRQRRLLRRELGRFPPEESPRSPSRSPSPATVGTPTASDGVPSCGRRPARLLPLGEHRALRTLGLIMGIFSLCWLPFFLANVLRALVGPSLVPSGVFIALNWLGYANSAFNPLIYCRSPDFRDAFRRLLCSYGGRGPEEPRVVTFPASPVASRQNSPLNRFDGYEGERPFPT

[2] = molecular target: Beta-3 adrenergic receptor (Rattus norvegicus) (UniProt P26255); assay: Effective dose required for beta-3-adrenergic activity against free fatty acid (FFA) in rat plasma; type: functional
[3] = Partition coefficient (logP); type: physicochemical; conditions: octanol/water
[4] = molecular target: Beta-3 adrenergic receptor (Rattus norvegicus) (UniProt P26255); assay: Compound was evaluated for the beta-3-adrenergic activity by measuring % response against free fatty acid (FFA) in rat plasma at a dosage of 0.1 mg/kg; type: functional, organism-based; design: dose 0.1 mg/kg

| SMILES | Response [1] | also measured |
| --- | --- | --- |
| CCOC(=O)C1(C(=O)OCC)Oc2ccc(C[C@@H](C)NC[C@H](O)c3cccc(Cl)c3)cc2O1 | 114% | ED50 (Mus musculus): 0.1 mg/kg; ED50 [2]: 0.034 mg/kg; logP [3]: 0.35 |
| C[C@H](Cc1ccc2c(c1)OC(C(=O)OCC(C)(C)C)(C(=O)OCC(C)(C)C)O2)NC[C@H](O)c1cccc(Cl)c1 | 134% | ED50 (Mus musculus): 0.028 mg/kg; ED50 [2]: 0.027 mg/kg; logP [3]: 2.16 |
| CC(C)CCOC(=O)C1(C(=O)OCCC(C)C)Oc2ccc(C[C@@H](C)NC[C@H](O)c3cccc(Cl)c3)cc2O1 | 109% | ED50 (Mus musculus): 0.11 mg/kg; ED50 [2]: 0.026 mg/kg; logP [3]: 3.77 |
| C[C@H](Cc1ccc2c(c1)OC(C(=O)OCCC(C)(C)C)(C(=O)OCCC(C)(C)C)O2)NC[C@H](O)c1cccc(Cl)c1 | 71% | ED50 (Mus musculus): 0.201 mg/kg; ED50 [2]: 0.08 mg/kg; logP [3]: 3.21 |
| C[C@H](Cc1ccc2c(c1)OC(C(=O)OCCc1cccs1)(C(=O)OCCc1cccs1)O2)NC[C@H](O)c1cccc(Cl)c1 | 77% | ED50 (Mus musculus): 0.208 mg/kg; ED50 [2]: 0.076 mg/kg |
| C[C@H](Cc1ccc2c(c1)OC(C(=O)OCCc1ccsc1)(C(=O)OCCc1ccsc1)O2)NC[C@H](O)c1cccc(Cl)c1 | 80% |  |
| CC(C)CCC(=O)OCOC(=O)C1(C(=O)OCOC(=O)CCC(C)C)Oc2ccc(C[C@@H](C)NC[C@H](O)c3cccc(Cl)c3)cc2O1 | 37% |  |
| C[C@H](Cc1ccc2c(c1)OC(C(=O)OCCCCc1ccccc1)(C(=O)OCCCCc1ccccc1)O2)NC[C@H](O)c1cccc(Cl)c1 | 43% |  |
| CCCCCCCCOC(=O)C1(C(=O)O)Oc2ccc(C[C@@H](C)NC[C@H](O)c3cccc(Cl)c3)cc2O1 (stereo partly drawn) | 45% |  |
| C[C@H](Cc1ccc2c(c1)OC(C(=O)OCC1CCC1)(C(=O)OCC1CCC1)O2)NC[C@H](O)c1cccc(Cl)c1 | 83% | ED50 (Mus musculus): 0.128 mg/kg; ED50 [2]: 0.071 mg/kg; logP [3]: 2.34 |
| C[C@H](Cc1ccc2c(c1)OC(C(=O)O)(C(=O)OCC1CCC1)O2)NC[C@H](O)c1cccc(Cl)c1 (stereo partly drawn) | 39% |  |
| C[C@H](Cc1ccc2c(c1)OC(C(=O)OCC1CCCCC1)(C(=O)OCC1CCCCC1)O2)NC[C@H](O)c1cccc(Cl)c1 | 22% |  |
| C[C@H](Cc1ccc2c(c1)OC(C(=O)OC1CCCC1)(C(=O)OC1CCCC1)O2)NC[C@H](O)c1cccc(Cl)c1 | 118% |  |
| C[C@H](Cc1ccc2c(c1)OC(C(=O)OC1CCCCC1)(C(=O)OC1CCCCC1)O2)NC[C@H](O)c1cccc(Cl)c1 | 59% |  |
| CCOC(=O)C1(C(=O)O)Oc2ccc(C[C@@H](C)NC[C@H](O)c3cccc(Cl)c3)cc2O1 (stereo partly drawn) | 57% |  |
| CCC(CC)OC(=O)C1(C(=O)OC(CC)CC)Oc2ccc(C[C@@H](C)NC[C@H](O)c3cccc(Cl)c3)cc2O1 | 63% |  |
| CCCC(=O)OCOC(=O)C1(C(=O)OCOC(=O)CCC)Oc2ccc(C[C@@H](C)NC[C@H](O)c3cccc(Cl)c3)cc2O1 | 24% |  |
| COCCOC(=O)C1(C(=O)O)Oc2ccc(C[C@@H](C)NC[C@H](O)c3cccc(Cl)c3)cc2O1 (stereo partly drawn) | 85% |  |
| COCCOC(=O)C1(C(=O)OCCOC)Oc2ccc(C[C@@H](C)NC[C@H](O)c3cccc(Cl)c3)cc2O1 | 65% |  |
| C[C@H](Cc1ccc2c(c1)OC(C(=O)[O-])(C(=O)[O-])O2)NC[C@H](O)c1cccc(Cl)c1.[Na+].[Na+] |  | ED50 (Mus musculus): 0.54 mg/kg; Response [4]: 2%; ED50 [2]: 0.24 mg/kg; logP [3]: 0.046 |
| C[C@H](Cc1ccc2c(c1)OC(C(=O)O)(C(=O)OCCC(C)(C)C)O2)NC[C@H](O)c1cccc(Cl)c1 (stereo partly drawn) | 61% |  |
| C=CCOC(=O)C1(C(=O)OCC=C)Oc2ccc(C[C@@H](C)NC[C@H](O)c3cccc(Cl)c3)cc2O1 | 86% |  |

| SMILES | Response [1] | also measured |
| --- | --- | --- |
| C[C@H](Cc1ccc2c(c1)OC(C(=O)OCCc1ccccc1)(C(=O)OCCc1ccccc1)O2)NC[C@H](O)c1cccc(Cl)c1 | 95% | ED50 (Mus musculus): 0.156 mg/kg; ED50 [2]: 0.071 mg/kg |
| C[C@H](Cc1ccc2c(c1)OC(C(=O)OCCc1cccc(C(F)(F)F)c1)(C(=O)OCCc1cccc(C(F)(F)F)c1)O2)NC[C@H](O)c1cccc(Cl)c1 | 28% |  |
| CC(C)CCOC(=O)C1(C(=O)O)Oc2ccc(C[C@@H](C)NC[C@H](O)c3cccc(Cl)c3)cc2O1 (stereo partly drawn) | 42% |  |
| CCOCCOC(=O)C1(C(=O)O)Oc2ccc(C[C@@H](C)NC[C@H](O)c3cccc(Cl)c3)cc2O1 (stereo partly drawn) | 73% |  |
| CC(C)OC(=O)C1(C(=O)OC(C)C)Oc2ccc(C[C@@H](C)NC[C@H](O)c3cccc(Cl)c3)cc2O1 | 100% | ED50 (Mus musculus): 0.056 mg/kg; ED50 [2]: 0.061 mg/kg; logP [3]: 1.29 |
| C[C@H](Cc1ccc2c(c1)OC(C(=O)O)(C(=O)OC[Si](C)(C)C)O2)NC[C@H](O)c1cccc(Cl)c1 (stereo partly drawn) | 30% |  |
| CC(=O)OCOC(=O)C1(C(=O)OCOC(C)=O)Oc2ccc(C[C@@H](C)NC[C@H](O)c3cccc(Cl)c3)cc2O1 | 39% |  |
| C[C@H](Cc1ccc2c(c1)OC(C(=O)O)(C(=O)OCC[Si](C)(C)C)O2)NC[C@H](O)c1cccc(Cl)c1 (stereo partly drawn) | 30% |  |
| CCCCCCCCOC(=O)C1(C(=O)OCCCCCCCC)Oc2ccc(C[C@@H](C)NC[C@H](O)c3cccc(Cl)c3)cc2O1 | 46% |  |
| CC(OC(=O)C(C)(C)C)OC(=O)C1(C(=O)OC(C)OC(=O)C(C)(C)C)Oc2ccc(C[C@@H](C)NC[C@H](O)c3cccc(Cl)c3)cc2O1 (stereo partly drawn) | 23% |  |
| C[C@H](Cc1ccc2c(c1)OC(C(=O)OCCCc1ccccc1)(C(=O)OCCCc1ccccc1)O2)NC[C@H](O)c1cccc(Cl)c1 | 61% |  |
| CCOCCOC(=O)C1(C(=O)OCCOCC)Oc2ccc(C[C@@H](C)NC[C@H](O)c3cccc(Cl)c3)cc2O1 | 101% |  |
| CCCCCCOC(=O)C1(C(=O)OCCCCCC)Oc2ccc(C[C@@H](C)NC[C@H](O)c3cccc(Cl)c3)cc2O1 | 51% |  |
| CC(C)COCCOC(=O)C1(C(=O)OCCOCC(C)C)Oc2ccc(C[C@@H](C)NC[C@H](O)c3cccc(Cl)c3)cc2O1 | 63% |  |
| CC(C)OCCOC(=O)C1(C(=O)OCCOC(C)C)Oc2ccc(C[C@@H](C)NC[C@H](O)c3cccc(Cl)c3)cc2O1 | 86% |  |
| C[C@H](Cc1ccc2c(c1)OC(C(=O)OCC1CC1)(C(=O)OCC1CC1)O2)NC[C@H](O)c1cccc(Cl)c1 | 99% |  |
| Cc1cccc(CCOC(=O)C2(C(=O)OCCc3cccc(C)c3)Oc3ccc(C[C@@H](C)NC[C@H](O)c4cccc(Cl)c4)cc3O2)c1 | 39% |  |
| C[C@H](Cc1ccc2c(c1)OC(C(=O)OCOC(=O)C1CCCCC1)(C(=O)OCOC(=O)C1CCCCC1)O2)NC[C@H](O)c1cccc(Cl)c1 | 19% |  |
| C[C@H](Cc1ccc2c(c1)OC(C(=O)OCC1(C)CCCCC1)(C(=O)OCC1(C)CCCCC1)O2)NC[C@H](O)c1cccc(Cl)c1 | 84% |  |
| C[C@H](Cc1ccc2c(c1)OC(C(=O)OCCOC(C)(C)C)(C(=O)OCCOC(C)(C)C)O2)NC[C@H](O)c1cccc(Cl)c1 | 14% |  |
| C[C@H](Cc1ccc2c(c1)OC(C(=O)OCc1cccc(Cl)c1)(C(=O)OCc1cccc(Cl)c1)O2)NC[C@H](O)c1cccc(Cl)c1 | 46% |  |
